Laboratory results: article PMC6009964, “Designing, synthesis and bioactivities of 4-[3-(4-hydroxyphenyl)-5-aryl-4,5-dihydro-pyrazol-1-yl]benzenesulfonamides” (Journal of Enzyme Inhibition and Medicinal Chemistry, 2016)
Like-named read-outs stand apart in the source and are kept apart here.

Assays:
[1] = Cytotoxicity assay (MTT), normal oral cells (mean); details: human, normal oral cells HGF, HPLF, HPC (mean of the three)
[2] = system: HSC-3 human oral squamous cell carcinoma cell line (tongue); assay: Cytotoxicity assay (MTT), HSC-3; details: for CC50: Homo sapiens, HSC-3, 48 h, read-out: CC50 HSC-3; for SI (HSC-3): average CC50 of nonmalignant cells / CC50 towards HSC-3
[3] = Cytotoxicity assay (MTT), HPC; details: human, normal pulp cells (HPC)
[4] = target: T1, hCA XII (Homo sapiens, UniProt O43570); assay: Stopped-flow CO2 hydration carbonic anhydrase assay, hCA XII; type: biochemical; details: for Ki: stopped-flow CO2 hydration, 15 min preincubation, pH 7.5; for times more potent than compound 1 towards hCA XII: ratio of Ki versus compound 1; for hCA XII/hCA IX (selectivity ratio of Ki): times more selective towards hCA XII than hCA IX
T1 construct: made in house
T1 sequence (O43570 25-354): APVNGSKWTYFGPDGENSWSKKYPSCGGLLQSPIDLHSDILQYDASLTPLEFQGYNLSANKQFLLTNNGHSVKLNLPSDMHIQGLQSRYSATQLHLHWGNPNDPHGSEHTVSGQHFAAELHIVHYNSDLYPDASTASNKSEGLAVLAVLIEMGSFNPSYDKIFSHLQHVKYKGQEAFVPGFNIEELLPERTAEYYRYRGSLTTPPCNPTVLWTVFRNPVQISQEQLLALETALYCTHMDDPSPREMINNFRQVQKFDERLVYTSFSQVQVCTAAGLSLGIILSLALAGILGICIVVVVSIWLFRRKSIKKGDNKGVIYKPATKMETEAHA

[5] = system: Human oral squamous cell carcinoma cell lines (Ca9–22, HSC-2, HSC-3, HSC-4); assay: Cytotoxicity assay (MTT), all four OSCC lines (mean, selectivity); details: for CC50: Homo sapiens; for TS (D/B): mean CC50 against normal cells / mean CC50 against cancer cells; for Mean SI: mean SI over four OSCC cell lines
[6] = Cytotoxicity assay (MTT), HGF; details: human, normal gingival fibroblasts (HGF)
[7] = system: HSC-4 human oral squamous cell carcinoma cell line (tongue); assay: Cytotoxicity assay (MTT), HSC-4; details: for CC50: Homo sapiens, HSC-4, 48 h, read-out: CC50 HSC-4; for SI (HSC-4): average CC50 of nonmalignant cells / CC50 towards HSC-4
[8] = Cytotoxicity assay (MTT), HPLF; details: human, normal periodontal ligament fibroblasts (HPLF)
[9] = target: T2, hCA IX (Homo sapiens, UniProt Q16790); assay: Stopped-flow CO2 hydration carbonic anhydrase assay, hCA IX; type: biochemical; details: for Ki: stopped-flow CO2 hydration, 15 min preincubation, pH 7.5; for times more potent than compound 1 towards hCA IX: ratio of Ki versus compound 1
T2 construct: made in house

[10] = system: HSC-2 human oral squamous cell carcinoma cell line (tongue); assay: Cytotoxicity assay (MTT), HSC-2; details: for CC50: Homo sapiens, HSC-2, 48 h, read-out: CC50 HSC-2; for SI (HSC-2): average CC50 of nonmalignant cells / CC50 towards HSC-2
[11] = system: Ca9–22 human oral squamous cell carcinoma cell line (gingiva); assay: Cytotoxicity assay (MTT), Ca9-22; details: for TS (C/A): CC50 HGF / CC50 Ca9–22 (same tissue origin, gingiva); for CC50: Homo sapiens, Ca9-22, 48 h, read-out: CC50 Ca9–22 (A); for SI (Ca9–22): average CC50 of nonmalignant cells / CC50 towards Ca9–22
[12] = read-out: CC50 Mean (B), human oral squamous cell carcinoma cell lines

SMILES | CC50 at 48 h [1] [µM] | CC50 [2] [µM] | SI (HSC-3) [2] | CC50 at 48 h [3] [µM] | Ki [4] [nM] | CC50 [5, 12] [µM] | TS (D/B) [5] | Mean SI [5] | CC50 at 48 h [6] [µM] | CC50 [7] [µM] | SI (HSC-4) [7] | CC50 at 48 h [8] [µM] | Ki [9] [nM] | CC50 [10] [µM] | SI (HSC-2) [10] | TS (C/A) [11] | CC50 [11] [µM] | SI (Ca9–22) [11] | hCA XII/hCA IX (selectivity ratio of Ki) [4] | further results
Cc1ccc(C2CC(c3ccc(O)cc3)=NN2c2ccc(S(N)(=O)=O)cc2)cc1 (stereo not drawn) [Compound 2, 4-[3-(4-Hydroxyphenyl)-5-p-tolyl-4,5-dihydro-pyrazol-1-yl]benzenesulfonamide] | 97.2 | 67.3 | 1.4 | 150 | 95 | 72.5 | 1.3 | 1.4 | 99.3 | 70.3 | 1.4 | 42.3 | 100 | 95.3 | 1.0 | 1.7 | 57 | 1.7 |  | 
NS(=O)(=O)c1ccc(N2N=C(c3ccc(O)cc3)CC2c2cccs2)cc1 (stereo not drawn) [Compound 9, 4-[3-(4-Hydroxyphenyl)-5-(thiophen-2-yl)-4,5-dihydro-pyrazol-1-yl]benzenesulfonamide] | 122 | 87.3 | 1.4 | 173 |  | 86.8 | 1.4 | 1.4 | 166 | 93.7 | 1.3 | 26.7 |  | 67 | 1.8 | 1.7 | 99.3 | 1.2 | 8.6 | times more potent than compound 1 towards hCA XII [4]: 11.1; times more potent than compound 1 towards hCA IX [9]: 17.3
O=c1[nH]cc(F)c(=O)[nH]1 [Compound 5-FU, 5-Fluorouracil, reference compound] | > 1000 | 16 | >62.5 | > 1000 |  | 17.8 | >56.2 | >62.7 | > 1000 | 13 | >76.9 | > 1000 |  | 13 | >76.9 | >34.5 | 29 | >34.5 |  | CC50 ([5]; read-out: CC50 range towards cancer cell lines): 13 to 29 µM
NS(=O)(=O)c1ccc(N2N=C(c3ccc(O)cc3)CC2c2ccc(Cl)cc2)cc1 (stereo not drawn) [Compound 4, 4-[5-(4-Chlorophenyl)-3-(4-hydroxyphenyl)-4,5-dihydro-pyrazol-1-yl]benzenesulfonamide] | 87.6 | 57 | 1.5 | 144 | 38.8 | 59.8 | 1.5 | 1.6 | 89 | 61 | 1.4 | 29.3 | 97.7 | 81.7 | 1.1 | 2.2 | 39.7 | 2.2 | 2.5 | 
NS(=O)(=O)c1ccc(N2N=C(c3ccc(O)cc3)CC2c2ccc(Br)cc2)cc1 (stereo not drawn) [Compound 7, 4-[5-(4-Bromophenyl)-3-(4-hydroxyphenyl)-4,5-dihydro-pyrazol-1-yl]benzenesulfonamide] | 78.6 | 70.3 | 1.1 | 149 | 7.6 | 68.2 | 1.2 | 1.2 | 52 | 61.7 | 1.3 | 34.3 | 66.2 | 85 | 0.9 | 0.9 | 55.7 | 1.4 | 8.7 | 
NS(=O)(=O)c1ccc(N2N=C(c3ccc(O)cc3)CC2c2ccc(F)cc2)cc1 (stereo not drawn) [Compound 6, 4-[5-(4-Fluorophenyl)-3-(4-hydroxyphenyl)-4,5-dihydro-pyrazol-1-yl]benzenesulfonamide] | 84.2 | 78 | 1.1 | 155 | 8.6 | 71.7 | 1.2 | 1.2 | 64.7 | 62.3 | 1.4 | 33 | 84.1 | 84.7 | 1.0 | 1.0 | 61.7 | 1.4 | 9.8 | 
NS(=O)(=O)c1ccc(N2N=C(c3ccc(O)cc3)CC2c2ccc([N+](=O)[O-])cc2)cc1 (stereo not drawn) [Compound 8, 4-[3-(4-Hydroxyphenyl)-5-(4-nitrophenyl)-4,5-dihydro-pyrazol-1-yl]benzenesulfonamide] | 66.2 | 63.3 | 1.0 | 127 | 7.5 | 60.6 | 1.1 | 1.2 | 42 | 63.7 | 1.0 | 30 | 63.7 | 76 | 0.9 | 1.1 | 39.3 | 1.7 | 8.5 | times more potent than compound 1 towards hCA XII [4]: 9.2; times more potent than compound 1 towards hCA IX [9]: 14.5
COc1ccc(C2CC(c3ccc(O)cc3)=NN2c2ccc(S(N)(=O)=O)cc2)cc1 (stereo not drawn) [Compound 3, 4-[3-(4-Hydroxyphenyl)-5-(4-methoxyphenyl)-4,5-dihydro-pyrazol-1-yl]benzenesulfonamide] | 105 | 71 | 1.5 | 167 | 33.6 | 77 | 1.4 | 1.4 | 108 | 88.3 | 1.2 | 39.3 | 93.1 | 95.3 | 1.1 | 2.0 | 53.3 | 2.0 | 2.8 | times increased inhibition potential versus compound 2 towards hCA XII ([4]; ratio of Ki versus compound 2): 2.8; times increased inhibition potential versus compound 2 towards hCA IX ([9]; ratio of Ki versus compound 2): 1.1
